Where two headings read alike, the source gives them in different places.
Experiments:
[1] = system: Jurkat HIV-luciferase clones; test: Jurkat latency reversal assay; type: cell-based; conditions: Homo sapiens, 48 h; Jurkat latency reversal assay potency; read-out: Jurkat pEC50 (converted)
How it was run: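 Compounds are titrated 3-fold over 14 points from 10 μM in duplicate at 0.5% DMSO. Clones C16, 115 and N6, grown with 500 nM EFV, are co-incubated for 48 h at 37° C. Virally driven luciferase is read by luminescence, and EC50 and maximal percent activation versus vehicle come from a four-parameter model.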

[2] = target: cIAP1-BIR3 (Homo sapiens (Human), UniProt Q13490); test: BIR binding assay (FRET competition), cIAP1 BIR3; conditions: for cIAP1 BIR3 vs BIR2 separation window: fold separation (FS) for cIAP1
Sequence of cIAP1-BIR3 (Q13490 253-363): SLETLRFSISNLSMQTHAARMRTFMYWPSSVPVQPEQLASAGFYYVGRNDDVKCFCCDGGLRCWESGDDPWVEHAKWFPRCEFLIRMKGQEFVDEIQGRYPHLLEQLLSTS
How it was run: (§1)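 His-tagged domains (50 nM cIAP1-BIR3, 325 nM cIAP2-BIR2, 325 nM cIAP1-BIR2, 100 nM XIAP-BIR3) compete with compounds for a 200 nM AlexaFluor647-labelled SMAC/DIABLO peptide in HEPES buffer, pH 7.4, for 60 min. Then 2 nM Eu-W1024 is added for 30 min. The 615/665 nm ratio is fit by four-parameter fit to give IC50.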

[3] = target: cIAP1-BIR2 (Homo sapiens (Human), UniProt Q13490); test: BIR binding assay (FRET competition), cIAP1 BIR2
Sequence of cIAP1-BIR2 (Q13490 173-257): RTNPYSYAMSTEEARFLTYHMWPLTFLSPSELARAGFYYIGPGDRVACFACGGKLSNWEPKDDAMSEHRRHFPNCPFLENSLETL
How it was run: as §1

[4] = target: cIAP2-BIR3 (Homo sapiens (Human), UniProt Q13489); test: BIR binding assay (FRET competition), cIAP2 BIR3; conditions: for cIAP2 BIR3 vs BIR2 separation window: fold separation (FS) for cIAP2
Sequence of cIAP2-BIR3 (Q13489 238-349): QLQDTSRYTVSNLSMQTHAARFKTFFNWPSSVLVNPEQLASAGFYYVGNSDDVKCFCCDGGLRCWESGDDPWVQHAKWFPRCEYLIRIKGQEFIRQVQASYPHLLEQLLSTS

[5] = target: cIAP2-BIR2 (Homo sapiens (Human), UniProt Q13489); test: BIR binding assay (FRET competition), cIAP2 BIR2
Sequence of cIAP2-BIR2 (Q13489 158-242): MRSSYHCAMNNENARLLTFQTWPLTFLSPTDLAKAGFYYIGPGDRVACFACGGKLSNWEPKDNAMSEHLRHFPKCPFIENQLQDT
How it was run: as §1

[6] = target: XIAP-BIR3 (Homo sapiens (Human), UniProt P98170); test: BIR binding assay (FRET competition), XIAP BIR3; conditions: for XIAP BIR3 vs BIR2 separation window: fold separation (FS) for XIAP
Sequence of XIAP-BIR3 (P98170 241-356): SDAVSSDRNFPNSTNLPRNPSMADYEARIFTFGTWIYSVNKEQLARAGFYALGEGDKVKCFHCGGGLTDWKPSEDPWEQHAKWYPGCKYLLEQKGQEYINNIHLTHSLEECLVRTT
How it was run: as §1

[7] = target: XIAP-BIR2 (Homo sapiens (Human), UniProt P98170); test: BIR binding assay (FRET competition), XIAP BIR2
Sequence of XIAP-BIR2 (P98170 124-240): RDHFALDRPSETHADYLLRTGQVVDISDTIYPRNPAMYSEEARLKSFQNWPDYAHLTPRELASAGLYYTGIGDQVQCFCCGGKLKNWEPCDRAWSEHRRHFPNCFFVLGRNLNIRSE
How it was run: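 Compounds in a 15-point, 3-fold series competed with an AlexaFluor647 SMAC peptide (AVPIAQKSE, 200 nM) for 200 nM His-tagged XIAP-BIR2 over 60 min in pH 7.4 HEPES/CHAPS/DTT buffer. Eu-W1024 (2 nM) was then added for 30 min. IC50 and pIC50 were derived from the 615 nm/665 nm emission ratio by variable-slope fit.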

[8] = FRET competition, read-out: XIAP BIR2 (pIC50) (converted)
[9] = FRET competition binding, read-out: XIAP BIR2 (pIC50) (converted)

| Compound | EC50 [1] [nM] | IC50 [2] [nM] | cIAP1 BIR3 vs BIR2 separation window [2] | IC50 [3] [nM] | IC50 [4] [nM] | cIAP2 BIR3 vs BIR2 separation window [4] | IC50 [5] [nM] | IC50 [6] [nM] | XIAP BIR3 vs BIR2 separation window [6] | IC50 [7, 8] [nM] | IC50 [7, 9] [nM] | IC50 [7] [nM] |
| --- | --- | --- | --- | --- | --- | --- | --- | --- | --- | --- | --- | --- |
| C[C@@H]1CN(CC(=O)N2CC(C)(C)c3[nH]c(=O)c(Cc4ccc(F)cc4)cc32)[C@@H](CN2CCN(CCc3cn(CCCC(=O)N4CCN(C[C@H]5CN[C@H](C)CN5CC(=O)N5CC(C)(C)c6[nH]c(=O)c(Cc7ccc(F)cc7)cc65)[C@H](C)C4)nn3)C[C@H]2C)CN1 [Compound 157] | 63.1 to 316 | 7.94 to 15.8 | ++ (1,000>FS>100) | 1000 to 3160 | 7.94 to 15.8 | ++ (1,000>FS>100) | 22.4 to 1000 | 15.8 to 31.6 | ++++ (FS>10,000) | 10000 to 51300 | – | – |
| C[C@@H]1CN(CC(=O)N2CC(C)(C)c3[nH]c(=O)c(Cc4ccc(F)cc4)cc32)[C@@H](CN2CCC(COc3cccc(OCC4CCN(C[C@H]5CN[C@H](C)CN5CC(=O)N5CC(C)(C)c6[nH]c(=O)c(Cc7ccc(F)cc7)cc65)CC4)c3)CC2)CN1 [Example 107, 1,1′-(2,2′-((3R,3′R,6R,6′R)-((((1,3-phenylenebis(oxy))bis(methylene))bis(piperidine-4,1-diyl))bis(methylene))bis(3-methylpiperazine-6,1-diyl))bis(acetyl))bis(6-(4-fluorobenzyl)-3,3-dimethyl-1,2,3,4-tetrahydro-5H-pyrrolo[3,2-b]pyridin-5-one)] | 12.6 to 63.1 | 7.94 to 15.8 | +++ (10,000>FS>1,000) | 1000 to 3160 | 1.38 to 7.94 | ++++ (FS>10,000) | 10000 to 51300 | 7.94 to 15.8 | ++++ (FS>10,000) | – | 10000 to 51300 | – |
| C[C@@H]1CN(CC(=O)N2CC(C)(C)c3[nH]c(=O)c(Cc4ccc(F)cc4)cc32)[C@@H](CN2CCO[C@H](COc3cccc(OC[C@@H]4CN(C[C@H]5CN[C@H](C)CN5CC(=O)N5CC(C)(C)c6[nH]c(=O)c(Cc7ccc(F)cc7)cc65)CCO4)c3F)C2)CN1 [Example 72, 1,1′-(2,2′-((3R,3′R,6R,6′R)-(((2S,2'S)-(((2-fluoro-1,3-phenylene)bis(oxy))bis(methylene))bis(morpholine-2,4-diyl))bis(methylene))bis(3-methylpiperazine-6,1-diyl))bis(acetyl))bis(6-(4-fluorobenzyl)-3,3-dimethyl-1,2,3,4-tetrahydro-5H-pyrrolo[3,2-b]pyridin-5-one)] | 0.49 to 12.6 | 7.94 to 15.8 | – | 22.4 to 1000 | 15.8 to 31.6 | – | 1000 to 3160 | 15.8 to 31.6 | – | – | – | 10000 to 51300 |
| C[C@@H]1CN(CC(=O)N2CC(C)(C)c3[nH]c(=O)c(Cc4ccc(F)cc4)cc32)[C@@H](CN2CCN(CCc3cn(CCC(=O)N4CCN(C[C@H]5CN[C@H](C)CN5CC(=O)N5CC(C)(C)c6[nH]c(=O)c(Cc7ccc(F)cc7)cc65)[C@H](C)C4)nn3)C[C@H]2C)CN1 [Compound 154] | 63.1 to 316 | 7.94 to 15.8 | +++ (10,000>FS>1,000) | 1000 to 3160 | 7.94 to 15.8 | +++ (10,000>FS>1,000) | 1000 to 3160 | 7.94 to 15.8 | ++++ (FS>10,000) | 10000 to 51300 | – | – |
| C[C@@H]1CN(CC(=O)N2CC(C)(C)c3[nH]c(=O)c(Cc4ccc(F)cc4)cc32)[C@@H](CN2CCO[C@H](C(=O)NCCOCCOCCOCCNC(=O)[C@@H]3CN(C[C@H]4CN[C@H](C)CN4CC(=O)N4CC(C)(C)c5[nH]c(=O)c(Cc6ccc(F)cc6)cc54)CCO3)C2)CN1 [Example 121, (2S,2'S)-N,N′-(((oxybis(ethane-2,1-diyl))bis(oxy))bis(ethane-2,1-diyl))bis(4-(((2R,5R)-1-(2-(6-(4-fluorobenzyl)-3,3-dimethyl-5-oxo-2,3,4,5-tetrahydro-1H-pyrrolo[3,2-b]pyridin-1-yl)-2-oxoethyl)-5-methylpiperazin-2-yl)methyl)morpholine-2-carboxamide)] | 63.1 to 316 | 7.94 to 15.8 | +++ (10,000>FS>1,000) | 1000 to 3160 | 7.94 to 15.8 | +++ (10,000>FS>1,000) | 1000 to 3160 | 7.94 to 15.8 | ++++ (FS>10,000) | – | 10000 to 51300 | – |
| C[C@@H]1CN(CC(=O)N2CC(C)(C)c3c2cc(Cc2ccc(F)cc2)c(=O)n3C)[C@@H](CN2CCO[C@H](COCc3ccc(COC[C@@H]4CN(C[C@H]5CN[C@H](C)CN5CC(=O)N5CC(C)(C)c6c5cc(Cc5ccc(F)cc5)c(=O)n6C)CCO4)cc3)C2)CN1 [Example 117, 1,1′-(2,2′-((3R,3′R,6R,6′R)-(((2S,2'S)-(((1,4-phenylenebis(methylene))bis(oxy))bis(methylene))bis(morpholine-2,4-diyl))bis(methylene))bis(3-methylpiperazine-6,1-diyl))bis(acetyl))bis(6-(4-fluorobenzyl)-3,3,4-trimethyl-1,2,3,4-tetrahydro-5H-pyrrolo[3,2-b]pyridin-5-one)] | 63.1 to 316 | 15.8 to 31.6 | +++ (10,000>FS>1,000) | 3160 to 10000 | 15.8 to 31.6 | +++ (10,000>FS>1,000) | 3160 to 10000 | 31.6 to 501 | ++++ (FS>10,000) | – | 10000 to 51300 | – |
| C[C@@H]1CN(CC(=O)N2CC(C)(C)c3[nH]c(=O)c(Cc4ccc(F)cc4)cc32)[C@@H](CN2CCC(CNC(=O)c3ccc(C(=O)NCC4CCN(C[C@H]5CN[C@H](C)CN5CC(=O)N5CC(C)(C)c6[nH]c(=O)c(Cc7ccc(F)cc7)cc65)CC4)cc3)CC2)CN1 [Example 101, N^1,N^4-bis((1-(((2R,5R)-1-(2-(6-(4-fluorobenzyl)-3,3-dimethyl-5-oxo-2,3,4,5-tetrahydro-1H-pyrrolo[3,2-b]pyridin-1-yl)-2-oxoethyl)-5-methylpiperazin-2-yl)methyl)piperidin-4-yl)methyl)terephthalamide] | 63.1 to 316 | 1.38 to 7.94 | +++ (10,000>FS>1,000) | 3160 to 10000 | 1.38 to 7.94 | ++++ (FS>10,000) | 3160 to 10000 | 7.94 to 15.8 | ++++ (FS>10,000) | – | 10000 to 51300 | – |
| C[C@@H]1CN(CC(=O)N2CC(C)(C)c3[nH]c(=O)c(Cc4cc(F)c(F)cc4F)cc32)[C@@H](CN2CCO[C@H](C(=O)NCc3ccc(CNC(=O)[C@@H]4CN(C[C@H]5CN[C@H](C)CN5CC(=O)N5CC(C)(C)c6[nH]c(=O)c(Cc7cc(F)c(F)cc7F)cc65)CCO4)cc3)C2)CN1 [Compound 175, (2S,2′S)-N,N′-(1,4-phenylenebis(methylene)) bis(4-(((2R,5R)-1-(2-(3,3-dimethyl-5-oxo-6-(2,4,5-trifluorobenzyl)-2,3,4,5-tetrahydro-1H-pyrrolo[3,2-b]pyridin-1-yl)-2-oxoethyl)-5-methylpiperazin-2-yl)methyl)morpholine-2-carboxamide)] | 0.49 to 12.6 | 15.8 to 31.6 | +++ (10,000>FS>1,000) | 1000 to 3160 | 7.94 to 15.8 | +++ (10,000>FS>1,000) | 3160 to 10000 | 15.8 to 31.6 | ++++ (FS>10,000) | 10000 to 51300 | – | – |

From patent US20250326771A1, “PIPERAZINE DERIVATIVES USEFUL IN HIV THERAPY” (VIIV HEALTHCARE COMPANY, priority 2022, published 2025)
